In PubChem BioAssay (NCI):
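Five concentrations, 48 hours, 96-well plates. GI50 = concentration required for 50% inhibition of growth. At the TGI there is no net growth.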

How the values were obtained:
Test in all cases: inhibition of tumour cell growth, NCI panel, 48 h
U251 CNS = tested on: U251 CNS
HL-60(TB) leukemia = tested on: HL-60(TB) leukemia
RXF 393 renal = tested on: RXF 393 renal
786-0 renal = tested on: 786-0 renal
MOLT-4 leukemia = tested on: MOLT-4 leukemia
SK-MEL-28 melanoma = tested on: SK-MEL-28 melanoma
SK-MEL-2 melanoma = tested on: SK-MEL-2 melanoma
COLO 205 colon = tested on: COLO 205 colon
TK-10 renal = tested on: TK-10 renal
A498 renal = tested on: A498 renal
ACHN renal = tested on: ACHN renal
NCI-H460 lung = tested on: NCI-H460 lung
SN12C renal = tested on: SN12C renal
SF-539 CNS = tested on: SF-539 CNS
KM20L2 colon = tested on: KM20L2 colon
CAKI-1 renal = tested on: CAKI-1 renal
M14 melanoma = tested on: M14 melanoma
HOP-92 NSCLC = tested on: HOP-92 NSCLC
MALME-3M melanoma = tested on: MALME-3M melanoma
SF-268 CNS = tested on: SF-268 CNS
LOX IMVI melanoma = tested on: LOX IMVI melanoma
OVCAR-8 ovarian = tested on: OVCAR-8 ovarian
UO-31 renal = tested on: UO-31 renal
HCC-2998 colon = tested on: HCC-2998 colon
IGROV1 ovarian = tested on: IGROV1 ovarian
HOP-62 NSCLC = tested on: HOP-62 NSCLC
DMS 273 small cell lung = tested on: DMS 273 small cell lung
A549 NSCLC = tested on: A549 NSCLC
SNB-19 CNS = tested on: SNB-19 CNS
DMS 114 small cell lung = tested on: DMS 114 small cell lung
SNB-78 CNS = tested on: SNB-78 CNS
NCI-H23 lung = tested on: NCI-H23 lung
SW-620 colon = tested on: SW-620 colon
SF-295 CNS = tested on: SF-295 CNS
EKVX NSCLC = tested on: EKVX NSCLC
LXFL 529 NSCLC = tested on: LXFL 529 NSCLC
XF 498 CNS = tested on: XF 498 CNS
OVCAR-5 ovarian = tested on: OVCAR-5 ovarian
HCT-116 colon = tested on: HCT-116 colon
SR leukemia = tested on: SR leukemia
SK-MEL-5 melanoma = tested on: SK-MEL-5 melanoma
SNB-75 CNS = tested on: SNB-75 CNS
DLD-1 colon = tested on: DLD-1 colon
UACC-62 melanoma = tested on: UACC-62 melanoma
HCT-15 colon = tested on: HCT-15 colon
OVCAR-3 ovarian = tested on: OVCAR-3 ovarian
OVCAR-4 ovarian = tested on: OVCAR-4 ovarian
M19-MEL melanoma = tested on: M19-MEL melanoma
KM12 colon = tested on: KM12 colon
SK-OV-3 ovarian = tested on: SK-OV-3 ovarian
NCI-H522 lung = tested on: NCI-H522 lung
NCI-H226 lung = tested on: NCI-H226 lung
HT29 colon = tested on: HT29 colon
UACC-257 melanoma = tested on: UACC-257 melanoma

CCC[CH2][Sn]([CH2]CCC)([O]C(=O)c1ccc(C)c(N)c1)[O]C(=O)c1ccc(C)c(N)c1
GI50 (U251 CNS): 287 nM | TGI (U251 CNS): 1280 nM | GI50 (HL-60(TB) leukemia): 144 nM | TGI (HL-60(TB) leukemia): 863 nM | GI50 (RXF 393 renal): 116 nM | TGI (RXF 393 renal): 511 nM | GI50 (786-0 renal): 323 nM | TGI (786-0 renal): 1310 nM | GI50 (MOLT-4 leukemia): 108 nM | TGI (MOLT-4 leukemia): 643 nM | GI50 (SK-MEL-28 melanoma): 347 nM | TGI (SK-MEL-28 melanoma): 1570 nM | GI50 (SK-MEL-2 melanoma): 172 nM | TGI (SK-MEL-2 melanoma): 720 nM | GI50 (COLO 205 colon): 330 nM | TGI (COLO 205 colon): 1380 nM | GI50 (TK-10 renal): 515 nM | TGI (TK-10 renal): 1660 nM | GI50 (A498 renal): 351 nM | TGI (A498 renal): 1210 nM | GI50 (ACHN renal): 352 nM | TGI (ACHN renal): 1320 nM | GI50 (NCI-H460 lung): 1430 nM | TGI (NCI-H460 lung): 2740 nM | GI50 (SN12C renal): 537 nM | TGI (SN12C renal): 1830 nM | GI50 (SF-539 CNS): 619 nM | TGI (SF-539 CNS): 1890 nM | GI50 (KM20L2 colon): 1500 nM | TGI (KM20L2 colon): 2820 nM | GI50 (CAKI-1 renal): 136 nM | TGI (CAKI-1 renal): 1380 nM | GI50 (M14 melanoma): 647 nM | TGI (M14 melanoma): 1920 nM | GI50 (HOP-92 NSCLC): 305 nM | TGI (HOP-92 NSCLC): 1700 nM | GI50 (MALME-3M melanoma): 179 nM | TGI (MALME-3M melanoma): 776 nM | GI50 (SF-268 CNS): 418 nM | TGI (SF-268 CNS): 1630 nM | GI50 (LOX IMVI melanoma): 185 nM | TGI (LOX IMVI melanoma): 681 nM | GI50 (OVCAR-8 ovarian): 910 nM | TGI (OVCAR-8 ovarian): 2120 nM | GI50 (UO-31 renal): 1110 nM | TGI (UO-31 renal): 2310 nM | GI50 (HCC-2998 colon): 1140 nM | TGI (HCC-2998 colon): 2360 nM | GI50 (IGROV1 ovarian): 1160 nM | TGI (IGROV1 ovarian): 2420 nM | GI50 (HOP-62 NSCLC): 2290 nM | TGI (HOP-62 NSCLC): 3780 nM | GI50 (DMS 273 small cell lung): 623 nM | TGI (DMS 273 small cell lung): 1970 nM | GI50 (A549 NSCLC): 2820 nM | TGI (A549 NSCLC): 8330 nM | GI50 (SNB-19 CNS): 1200 nM | TGI (SNB-19 CNS): 2430 nM | GI50 (DMS 114 small cell lung): 132 nM | TGI (DMS 114 small cell lung): 322 nM | GI50 (SNB-78 CNS): 277 nM | TGI (SNB-78 CNS): 1540 nM | GI50 (NCI-H23 lung): 203 nM | TGI (NCI-H23 lung): 1000 nM | GI50 (SW-620 colon): 224 nM | TGI (SW-620 colon): 1040 nM | GI50 (SF-295 CNS): 1240 nM | TGI (SF-295 CNS): 2490 nM | GI50 (EKVX NSCLC): 600 nM | TGI (EKVX NSCLC): 1940 nM | GI50 (LXFL 529 NSCLC): 47.3 nM | TGI (LXFL 529 NSCLC): 176 nM | GI50 (XF 498 CNS): 181 nM | TGI (XF 498 CNS): 353 nM | GI50 (OVCAR-5 ovarian): 1820 nM | TGI (OVCAR-5 ovarian): 3220 nM | GI50 (HCT-116 colon): 527 nM | TGI (HCT-116 colon): 1860 nM | GI50 (SR leukemia): 179 nM | TGI (SR leukemia): 3620 nM | GI50 (SK-MEL-5 melanoma): 1080 nM | TGI (SK-MEL-5 melanoma): 2280 nM | GI50 (SNB-75 CNS): 502 nM | TGI (SNB-75 CNS): 1870 nM | GI50 (DLD-1 colon): 282 nM | TGI (DLD-1 colon): 1250 nM | GI50 (UACC-62 melanoma): 378 nM | TGI (UACC-62 melanoma): 1440 nM | GI50 (HCT-15 colon): 698 nM | TGI (HCT-15 colon): 2010 nM | GI50 (OVCAR-3 ovarian): 1070 nM | TGI (OVCAR-3 ovarian): 2260 nM | GI50 (OVCAR-4 ovarian): 1240 nM | TGI (OVCAR-4 ovarian): 2480 nM | GI50 (M19-MEL melanoma): 244 nM | TGI (M19-MEL melanoma): 1280 nM | GI50 (KM12 colon): 1310 nM | TGI (KM12 colon): 2610 nM | GI50 (SK-OV-3 ovarian): 1840 nM | TGI (SK-OV-3 ovarian): 3240 nM | GI50 (NCI-H522 lung): 18 nM | TGI (NCI-H522 lung): 117 nM | GI50 (NCI-H226 lung): 334 nM | TGI (NCI-H226 lung): 1440 nM | GI50 (HT29 colon): 1340 nM | TGI (HT29 colon): 2640 nM | GI50 (UACC-257 melanoma): 334 nM | TGI (UACC-257 melanoma): 1620 nM
